# Measurements reported in patent publication US8835112B2, “Cell transdifferentiation into brown adipocytes” (Miami University, priority 2010, dated 2014).
# Tested on: HB-EGF and ADAM 12S co-expressing cells
# Assay: Inhibition of adipogenesis by KB-R7785 (Oil Red O staining, morphology)
# Format: cell-based, mouse
# Method: Cells were grown in the 60 mm culture dishes (Corning). After reaching a cell confluence of 50-70%, the cells were washed with 1.0 ml of PBS for three times, fixed with 1.0 ml of 10% formalin for 60 minutes at room temperature. Oil Red O stock stain solution was prepared by mixing 0.3 g oil red O in 100 ml of isopropanol overnight at room temperature and filtered by using Whatman #2 filter papers. The formalin was removed and the cells were washed with deionized water. The culture dishes were aspirated and added with 1.0 ml of 60% isopropanol working solution to incubate 5 minutes at room temperature. Oil Red O working solution was prepared by diluting 30 ml of the stock stain with 20 ml of distilled water, filtered with Whatman #1 filter papers into a Coplin jar, and covered with a lid immediately. The 60% working isopropanol was removed and the culture dishes were filled with 1.0 ml working solution of Oil Red O, incubated for 5 minutes at room temperature. The cells were rinsed with deionized water until fluid becomes clear, and counterstained with 1 ml of hematoxylin for 1 minute at room temperature. The hematoxylin was then removed from the wells, and the cells were rinsed with deionized water and imaged under a microscope (Olympus). […]
compound,measurement,setting,value
"CNC(=O)[C@@H](NC(=O)[C@H](CC(C)C)[C@H](C)C(=O)NO)c1ccccc1 [KB-R7785, [4-(N-hydroxyamino)-2R-isobutyl-3S-methylsuccinyl]-L-phenylglycine-N-methylamide]",Reversal of brown adipocytes / adipocyte morphology,"KB-R7785 10 μM, over 4 weeks, mouse fibroblasts stably transfected with ADAM 12S and HB-EGF",returned the brown adipocytes to mouse fibroblasts
same,Oil Red O staining after incubation with inhibitor,"KB-R7785 20 μM in culture media, 3 weeks incubation, cells positive for Oil Red O before",lack Oil Red O staining
